Results taken from patent US20260242359A1, “IRHOM2 INHIBITORS AND USES THEREOF” (NEW YORK SOCIETY FOR THE RELIEF OF THE RUPTURED AND …, priority 2023, published 2026).

Tested on: PMA-induced release of endogenous HB-EGF from human peripheral blood mononuclear cells (PBMCs)
Assay: Example 16: ELISA-based HB-EGF release assay, PMA-induced, PBMCs from healthy donor
Format: cell-based
Details: 10 μM final concentration, PMA 25 ng/ml, delta Buffer stimulated vs unstimulated = 100% inhibition; for inhibition at 10 µM: Homo sapiens, PBMC
Experimental: In the following study, ELISA-based HB-EGF release assays were performed to analyze the inhibitory effects of Compounds 1, 2, 3, 4, 5, and 7 on PMA-induced release of endogenous HB-EGF from primary human material obtained from healthy donor using peripheral blood mononuclear cells (PBMCs). The ELISA-based HB-EGF release assay that was used in this example is described below.
In brief, on day 1, Nunc black MaxiSorp® 96-well plates (Thermo Fisher Scientific, USA) were coated overnight with 100 μl per well of mouse anti-human HB-EGF capture antibody (provided as part of the DuoSet ELISA kit) at 2 μg/ml TBS at 4° C.
80,000 PBMCs from healthy donor (SciRhom GmbH, Germany) in 80 μl of normal growth medium were seeded in each well of Greiner CELLSTAR V-bottom 96-well plates (Greiner Bio-One, Germany) and pre-incubated with […] per well of standard growth medium supplemented with Batimastat (BB94, Abcam, UK) at 50 μM as positive control (for a final concentration of 10 μM in the resulting 100 μl sample volume), compounds of the invention at 50 μM (for a final concentration of 10 μM in the resulting 100 μl sample volume) and in case of Buffer stimulated and unstimulated controls with DMSO (Carl Roth, Germany) at 50 μM (for a final concentration of 10 μM in the resulting 100 μl sample volume) at 37° C., 5% CO2 for 30 minutes. Subsequently, cells (except those for unstimulated controls) were stimulated with 20 μl per well of PMA (Sigma-Aldrich, USA) at 150 ng/ml in growth medium for a final concentration of 25 ng/ml at 37° C., 5% CO2 for 22 hours.
On day 2, the capture antibody solution was removed and MaxiSorp® plates were blocked with 300 μl per well of TBS, 1% BSA at room temperature for 1-2 hours. Meanwhile, the 96-well plates were centrifuged to pellet cells. In parallel, blocking buffer was removed from the MaxiSorp® plates and plates were washed 4 times with 350 μl TBS-T (Carl Roth, Germany) per well on a 96-head plate washer (Tecan Group, Switzerland). To avoid drying-up, 30 μl TBS were added to each well of the MaxiSorp® plates immediately, followed by the transfer of 70 μl cell-free supernatant per sample. Additionally, 100 μl recombinant human HB-EGF protein (provided as part of the DuoSet ELISA kit) diluted in TBS at defined concentrations were added to the plate as standard references. Plates were incubated at room temperature for 2 hours. After 4 times washing with 350 μl TBS-T (Carl Roth, Germany) per well on a 96-head plate washer (Tecan Group, Switzerland) and careful removal of all buffer traces after the fourth cycle, 100 μl biotinylated goat anti-human HB-EGF detection antibody (provided as part of the DuoSet ELISA kit) at 50 ng/ml TBS were added per well and, protected from direct light, plates were incubated at room temperature for 2 hours.
After 4 times washing with 350 μl TBS-T (Carl Roth, Germany) per well on a 96-head plate washer (Tecan Group, Switzerland) and careful removal of all buffer traces after the fourth cycle, 100 μl streptavidin-AP (R&D Systems, USA) diluted 1:10,000 in TBS were added to each well and, again protected from direct light, plates were incubated at room temperature for 30 minutes. Following another round of 4 times washing with 350 μl TBS-T (Carl Roth, Germany) per well on a 96-head plate washer (Tecan Group, Switzerland) and careful removal of all buffer traces after the fourth cycle, 100 μl AttoPhos substrate solution (Promega, USA) per well was added for incubation in the dark at room temperature for 1 hour. Using an infinite M1000 (Tecan Group, Switzerland) microplate reader, the fluorescence of each well was collected at an excitation wavelength of 435 nm and an emission wavelength of 555 nm.
The delta between Buffer stimulated and Buffer unstimulated was defined 100% inhibition.

Compound: CCOC(=O)c1ccc(Nc2nc3nonc3n3nnnc23)cc1 [Compound 2]
- inhibition at 10 µM (22 h): 100%

Compound: Cc1c(C(=O)NCc2cccs2)sc(=O)n1Cc1ccccc1 [Compound 4]
- inhibition at 10 µM (22 h): 38.7%

Compound: O=C(c1c(Cl)cccc1Cl)N1CCC(Cc2ccc(F)cc2)CC1 [Compound 3]
- inhibition at 10 µM (22 h): 22.4%

Compound: Cc1c(C(=O)NCc2cccs2)sc(=O)n1Cc1ccccc1F [Compound 5]
- inhibition at 10 µM (22 h): 34%

Compound: CNC(=O)[C@H](Cc1ccccc1)NC(=O)[C@H](CC(C)C)[C@H](CSc1cccs1)C(=O)NO [Batimastat, reference compound]
- inhibition of PMA-induced release of HB-EGF from PBMCs from healthy donor (22 hours): 107.6%
- inhibition at 10 µM (22 h): 98.5%

Compound: CCC(=O)NCCc1c(/C=C2/C(=O)NC(=O)N(c3ccc(C)cc3C)C2=O)[nH]c2ccccc12 [Compound 1]
- inhibition at 10 µM (22 hours): 101%

Compound: Cc1c(C(=O)NCc2ccco2)sc(=O)n1Cc1ccccc1F [Compound 7]
- inhibition at 10 µM (22 h): 107%
